From paper PMC3790881, “Identification of Leptospira interrogans Phospholipase C as a Novel Virulence Factor Responsible for Intracellular Free Calcium Ion Elevation during Macrophage Death” (PLoS ONE, 2013)

Target: T1, rL-PI-PLC (recombinant LB361 gene product; L-PI-PLC) (Leptospira interrogans, UniProt Q8EX56)
T1 construct: gene LB_361; entire LB361 gene (amplicon 384 bp) in pET42a, expressed in E. coli BL21DE3, Ni-NTA purified
Experiment: IP3 fluorescence polarization assay, Lineweaver-Burk plot
Type: biochemical
Settings: pH 7.0, 37 °C, 50 mM HEPES, 100 mM KCl, 1.9 mM CaCl2, 2 mM EGTA, 0.1% sodium deoxycholate; acyl chains of PIP2 not told

T1 sequence (Q8EX56 entry or part of it): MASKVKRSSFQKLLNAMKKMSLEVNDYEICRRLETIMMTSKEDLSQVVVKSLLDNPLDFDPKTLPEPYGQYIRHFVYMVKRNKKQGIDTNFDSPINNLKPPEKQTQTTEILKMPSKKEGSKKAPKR

PIP2
Km: 199 µM
